# Experimental data from US20040038946A1, “Fullerene-based drugs targeted to bone” (priority 2003, published 2004).
# Where two headings read alike, the source gives them in different places.
# What was measured:
# [1] = Constant composition HAP crystal growth inhibition; conditions: for Rate of HAP crystal growth: 37 °C, uninhibited rate 9.09; for Reduction of HAP crystal growth rate: concentration of 3.1×10^-5 M
# Experimental: Hydroxyapatite seed crystals were prepared from calcium nitrate and potassium dihydrogen phosphate, as detailed elsewhere. The specific surface area, 34.9 m2 g-1, was determined by BET nitrogen adsorption using a 30/70 N2/He mixture (Monosorb, Quantachrome Corp). HAP crystals in the form of a suspension in water (41.8 g L-1) were used for the crystal growth experiments.
# Solutions were prepared using triply distilled carbon dioxide-free water and filtered before use through washed 0.22 μm filters (Millipore, Bedford, Mass.). Calcium concentrations were determined either complexometrically by EDTA titration with Eriochrome Black-T as indicator, or by atomic absorption (Perkin-Elmer, model 3100, Norwich, Conn.). Carbon dioxide-free potassium hydroxide solutions were prepared from washed Reagent grade pellets in a nitrogen atmosphere.
# Crystal growth experiments were made in magnetically-stirred water-jacketed Pyrex vessels at 37.0±0.05° C. with ionic strength, I=0.15 mol L^−1, adjusted by the addition of sodium chloride. Supersaturated solutions were prepared by introducing calcium chloride solution, followed by potassium dihydrogen phosphate solution. The pH was adjusted to the required value by the slow addition of potassium hydroxide solutions. During the reactions, carbon dioxide was excluded by bubbling with presaturated nitrogen gas. After equilibration, 0.5 mL of the HAP slurry was introduced to initiate the reaction. Since the nucleation and growth of crystals consume solution lattice ions, the lowering of pH was used to trigger the addition of two titrant solutions that served to maintain constant the pH, the concentrations of calcium and phosphate and the ionic strength of the solution. A glass electrode (Orion, model 9101), standardized using two NBS buffer solutions at pH=7.386 and 4.028 at 37° C., was used to control titrant addition through a potentiostat. The total calcium concentration in all experiments was 6.00×10^−4 mol L^−1 with a calcium/phosphate molar ratio of 1.67, so as to achieve a supersaturation with respect to HAP of σ=5.55 (as defined in Eq. (1)), as computed from mass balance, proton dissociation, electroneutrality, and equilibrium expressions involving calcium and phosphate species.
# In Eq. (1), v is the number of ions per formula unit of precipitating phase and IP and KSO are, respectively, the ionic and solubility products of HAP.
# During the reactions, samples were withdrawn periodically, filtered (0.22 μm Millipore filter) and analyzed for calciwn by atomic absorption and for phosphate spectrophotometrically (Varian, Cary 210) as the phosphovanadomolybdate complex in order to verify the constancy of the solution composition. Solid phases were examined by X-ray powder diffraction, XRD, (Siemens Nicolet/Nic spectrometer, CuK radiation with Ni filter=1.540; 2 from 3o to 45o), by scanning electron microscopy (SEM at 20 kV; JEOL JSM-5300, Noran Instrumental Inc. Middleton, Wis.) and by diffuse reflectance infared fourier transform spectroscopy (FTR, Perkin Elmer 1760×Fr-IR spectrometer). Plots of mineralization were calculated from plots of titrant volumes as a function of time as described previously.
# It is quite well established that strong inhibitors of crystal growth, such as the phosphonates, act by blocking, through adsorption, active growth sites at the crystal surfaces. Commonly, inhibition kinetics data are interpreted in terms of a simple Langmuir adsorption model. Assuming that the adsorbed fullerene molecules occupy a fraction, θ, of the active growth sites, thereby preventing them from participating in the growth, the growth rate R can be written in terms of the uninhibited rate Ro (Eq. (2)): […]
# [2] = cited from earlier work
# [3] = Concentration 1.0 × 10^−6 mol/L
compound,measurement,setting,value
"4,4-bisphosphono-2-(polyhdroxyl-1,2-dihdro-1,2-methanofullerene[60]-61-carboxamido)butyric Acid [C60(OH)16AMBP]",Rate of HAP crystal growth,[1]; C60(OH)16AMBP 0.39 × 10^−6 mol L^−1,7.67 10^−8 mol min^−1 m^−2
same,Rate of HAP crystal growth,[1]; C60(OH)16AMBP 0.77 × 10^−6 mol L^−1,6.51 10^−8 mol min^−1 m^−2
same,Rate of HAP crystal growth,[1]; C60(OH)16AMBP 1.16 × 10^−6 mol L^−1,4.55 10^−8 mol min^−1 m^−2
same,Rate of HAP crystal growth,[1]; C60(OH)16AMBP 1.54 × 10^−6 mol L^−1,3.77 10^−8 mol min^−1 m^−2
same,Rate of HAP crystal growth,[1]; C60(OH)16AMBP 1.93 × 10^−6 mol L^−1,2.83 10^−8 mol min^−1 m^−2
same,Rate of HAP crystal growth,[1]; C60(OH)16AMBP 2.32 × 10^−6 mol L^−1,2.46 10^−8 mol min^−1 m^−2
same,Rate of HAP crystal growth,[1]; C60(OH)16AMBP 2.7 × 10^−6 mol L^−1,1.92 10^−8 mol min^−1 m^−2
same,Rate of HAP crystal growth,[1]; C60(OH)16AMBP 3.09 × 10^−6 mol L^−1,1.57 10^−8 mol min^−1 m^−2
same,Rate of HAP crystal growth,[1]; C60(OH)16AMBP 3.47 × 10^−6 mol L^−1,1.23 10^−8 mol min^−1 m^−2
same,Percent Reduction in Growth Rate,[1]; [3],50%
same,Percent Reduction in Growth Rate,[1]; Concentration 3.5 × 10^−6 mol/L,87%
same,Reduction of HAP crystal growth rate,[1],87%
"CC(O)(P(=O)(O)O)P(=O)(O)O [CH3C(OH)[P(O)(OH)2]2, 1-hydroxyethylidene-1,1-diphosphonic acid]",Percent Reduction in Growth Rate,[2]; [3],69^ref 29%
same,Affinity Constant,[2],13.3 × 10^5 ref 29 L mol^−1
Fullerenol[60] [C60(OH)30],Rate of HAP crystal growth,[1]; C60(OH)30 0.41 × 10^−6 mol L^−1,8.31 10^−8 mol min^−1 m^−2
same,Rate of HAP crystal growth,[1]; C60(OH)30 0.81 × 10^−6 mol L^−1,7.8 10^−8 mol min^−1 m^−2
same,Rate of HAP crystal growth,[1]; C60(OH)30 1.22 × 10^−6 mol L^−1,6.55 10^−8 mol min^−1 m^−2
same,Rate of HAP crystal growth,[1]; C60(OH)30 1.63 × 10^−6 mol L^−1,5.94 10^−8 mol min^−1 m^−2
same,Rate of HAP crystal growth,[1]; C60(OH)30 2.03 × 10^−6 mol L^−1,5.7 10^−8 mol min^−1 m^−2
same,Rate of HAP crystal growth,[1]; C60(OH)30 2.44 × 10^−6 mol L^−1,4.65 10^−8 mol min^−1 m^−2
same,Rate of HAP crystal growth,[1]; C60(OH)30 2.85 × 10^−6 mol L^−1,4.07 10^−8 mol min^−1 m^−2
same,Rate of HAP crystal growth,[1]; C60(OH)30 3.25 × 10^−6 mol L^−1,3.97 10^−8 mol min^−1 m^−2
same,Rate of HAP crystal growth,[1]; C60(OH)30 3.66 × 10^−6 mol L^−1,3.85 10^−8 mol min^−1 m^−2
same,Rate of HAP crystal growth,[1]; C60(OH)30 4.07 × 10^−6 mol L^−1,2.64 10^−8 mol min^−1 m^−2
same,Rate of HAP crystal growth,[1]; C60(OH)30 4.47 × 10^−6 mol L^−1,2.49 10^−8 mol min^−1 m^−2
same,Percent Reduction in Growth Rate,[1]; [3],28%
same,Affinity Constant,"[1]; Langmuir adsorption model, slope of Ro/R versus concentration",414000 L/mol
same,Reduction of HAP crystal growth rate,[1],58%
